We go through four compounds from ChEMBL document CHEMBL1127342, “Structure-based design of HIV protease inhibitors: 4-hydroxycoumarins and 4-hydroxy-2-pyrones as non-peptidic inhibitors” (J Med Chem, 1994).

In series [1] the target is T1, Human immunodeficiency virus type 1 protease (Human immunodeficiency virus 1, UniProt Q72874). Description: (§1) Tested for the HIV Protease inhibitory activity of the compound.
Series [2] in a line: Tested for antiviral activity in HIV-1 infected PBMC; 100-300. It is filed as functional. To be noted: Human immunodeficiency virus 1; read-out: ED50 (the source's name).
Series [3] addresses T1, Human immunodeficiency virus type 1 protease. The description is as §1. It is filed as functional.
The nature of series [4]: Tested for pharmacokinetic parameter to calculate the total body clearance at a dosage of 2.5 mg/kg in dog. It is filed as ADME, organism-based, Canis lupus familiaris. The arrangement: dose 2.5 mg/kg. The settings on record: in vivo, read-out: ClT.
A short description of series [5]: Oral bioavailability in rat. Type of series: ADME, organism-based. The settings on record: in vivo.
The target of series [6] is T2, Renin (Homo sapiens) (UniProt P00797).
T2 sequence (whole entry): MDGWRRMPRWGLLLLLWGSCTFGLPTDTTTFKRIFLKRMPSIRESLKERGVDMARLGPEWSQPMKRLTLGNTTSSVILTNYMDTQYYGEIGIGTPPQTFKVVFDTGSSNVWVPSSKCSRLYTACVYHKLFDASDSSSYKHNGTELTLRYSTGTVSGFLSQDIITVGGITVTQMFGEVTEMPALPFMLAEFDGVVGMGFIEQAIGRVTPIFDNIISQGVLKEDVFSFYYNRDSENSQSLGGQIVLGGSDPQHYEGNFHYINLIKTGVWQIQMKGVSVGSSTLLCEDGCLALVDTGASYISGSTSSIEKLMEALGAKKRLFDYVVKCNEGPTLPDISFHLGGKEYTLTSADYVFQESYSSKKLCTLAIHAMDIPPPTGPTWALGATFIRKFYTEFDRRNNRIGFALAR
Description: Tested for the inhibitory activity against human aspartyl protease, renin at 10 uM concentration.

Series [7] relates to H9. Description: Tested for the antiviral activity against HIV-1 IIIB-infected H9 cells. It is filed as functional. To be noted: Homo sapiens, read-out: ED50 (the source's name).
In series [8] the target is Human immunodeficiency virus type 1 protease (Human immunodeficiency virus 1) (UniProt Q72874). Description: Tested for the activity against HIV protease.
Series [9] concerns the target T1, Human immunodeficiency virus type 1 protease. Description: Tested for the binding affinity against HIV-1 Protease.
Series [10] is described as follows: Tested for pharmacokinetic parameter to calculate the steady-state volume of distributio at a dosage of 2.5 mg/kg in dog. To be noted: in vivo, read-out: Vss. On the set-up: dose 2.5 mg/kg. Type of series: ADME, organism-based, Canis lupus familiaris.
Series [11] is described as follows: Tested for pharmacokinetic parameter to calculate the steady-state volume of distributio at a dosage of 12 mg/kg in rat. It is filed as ADME, organism-based. On the set-up: dose 12 mg/kg. The settings on record: in vivo, read-out: Vss.
The nature of series [12]: Tested for pharmacokinetic parameter to calculate the half life period at a dosage of 2.5 mg/kg in dog. Type of series: ADME, organism-based, Canis lupus familiaris. On the set-up: dose 2.5 mg/kg. The settings on record: in vivo.
The target of series [13] is Pepsin A (Homo sapiens) (UniProt P0DJD9). Description: Inhibitory activity against human aspartyl protease, pepsin at 10 uM.
Pepsin A (Homo sapiens), sequence (P0DJD9 63-388 limits assumed): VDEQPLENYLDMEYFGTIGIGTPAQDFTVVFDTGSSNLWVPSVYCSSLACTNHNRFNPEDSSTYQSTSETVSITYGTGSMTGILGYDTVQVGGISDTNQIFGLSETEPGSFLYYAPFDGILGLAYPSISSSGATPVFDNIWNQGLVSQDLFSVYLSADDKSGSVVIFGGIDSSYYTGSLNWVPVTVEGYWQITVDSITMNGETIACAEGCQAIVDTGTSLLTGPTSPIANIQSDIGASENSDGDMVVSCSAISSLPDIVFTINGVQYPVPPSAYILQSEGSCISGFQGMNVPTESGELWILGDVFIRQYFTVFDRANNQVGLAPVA
Series [14] deals with Gastricsin (Homo sapiens) (UniProt P20142). Description: Tested for the inhibitory activity against human aspartyl protease gastricsin at 10 uM concentration.
Gastricsin (Homo sapiens), sequence (P20142 whole entry, looked up): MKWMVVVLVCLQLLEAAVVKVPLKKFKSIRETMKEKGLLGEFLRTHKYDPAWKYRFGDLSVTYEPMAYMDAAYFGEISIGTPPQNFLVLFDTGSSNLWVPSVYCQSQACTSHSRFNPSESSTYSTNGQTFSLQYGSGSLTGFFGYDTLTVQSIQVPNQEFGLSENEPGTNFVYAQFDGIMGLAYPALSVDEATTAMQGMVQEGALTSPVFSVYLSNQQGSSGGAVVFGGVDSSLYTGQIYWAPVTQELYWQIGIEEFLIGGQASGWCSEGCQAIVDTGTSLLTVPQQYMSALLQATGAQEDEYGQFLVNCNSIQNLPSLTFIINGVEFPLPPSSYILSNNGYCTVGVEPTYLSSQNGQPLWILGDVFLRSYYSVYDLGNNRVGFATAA
The nature of series [15]: Tested for pharmacokinetic parameter to calculate the total body clearance at a dosage of 12 mg/kg in rat. It is filed as ADME, organism-based. The arrangement: dose 12 mg/kg. To be noted: in vivo, read-out: ClT.
Series [16] addresses Cathepsin D (Homo sapiens) (UniProt P07339). Description: Tested for the inhibitory activity against human aspartyl protease, cathepsin D at 10 uM concentration.
Series [17] in a line: Oral bioavailability in dog. It is filed as ADME, organism-based, Canis lupus familiaris. To be noted: in vivo.
The subject of series [18] is MT4. Description: Tested for the antiviral activity against HIV-1 IIIB-infected MT-4. It is filed as functional. To be noted: Homo sapiens, read-out: ED50 (the source's name).
Series [19] is described as follows: Tested for pharmacokinetic parameter to calculate the half life period at a dosage of 12 mg/kg in rat. Type of series: ADME, organism-based. On the set-up: dose 12 mg/kg. To be noted: in vivo.
In series [20] the target is T3, Cathepsin E (Homo sapiens) (UniProt P14091).
T3 sequence (whole entry): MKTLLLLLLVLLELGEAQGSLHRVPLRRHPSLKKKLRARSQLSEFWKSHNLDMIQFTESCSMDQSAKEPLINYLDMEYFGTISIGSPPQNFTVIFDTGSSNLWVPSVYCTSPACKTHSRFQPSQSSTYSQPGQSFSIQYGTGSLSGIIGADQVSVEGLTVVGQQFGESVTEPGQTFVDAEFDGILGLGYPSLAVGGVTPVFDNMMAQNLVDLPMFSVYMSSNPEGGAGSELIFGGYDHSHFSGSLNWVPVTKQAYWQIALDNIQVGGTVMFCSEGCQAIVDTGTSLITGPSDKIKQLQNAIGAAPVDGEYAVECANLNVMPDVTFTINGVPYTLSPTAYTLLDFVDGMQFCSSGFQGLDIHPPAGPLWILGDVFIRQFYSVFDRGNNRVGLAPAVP
Description: Tested for the inhibitory activity against human aspartyl protease, cathepsin E at 10 uM concentration.

The nature of series [21]: Tested for antiviral activity against clinical isolates such as AZT resistant strain. The settings on record: read-out: ED50 (the source's name). It is filed as functional.

Cathepsin D (Homo sapiens), sequence (P07339 65-162 limits assumed): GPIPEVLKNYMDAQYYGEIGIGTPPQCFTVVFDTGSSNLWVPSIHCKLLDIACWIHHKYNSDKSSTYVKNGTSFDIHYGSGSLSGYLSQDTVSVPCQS
Cathepsin D (Homo sapiens), sequence (P07339 169-412 limits assumed): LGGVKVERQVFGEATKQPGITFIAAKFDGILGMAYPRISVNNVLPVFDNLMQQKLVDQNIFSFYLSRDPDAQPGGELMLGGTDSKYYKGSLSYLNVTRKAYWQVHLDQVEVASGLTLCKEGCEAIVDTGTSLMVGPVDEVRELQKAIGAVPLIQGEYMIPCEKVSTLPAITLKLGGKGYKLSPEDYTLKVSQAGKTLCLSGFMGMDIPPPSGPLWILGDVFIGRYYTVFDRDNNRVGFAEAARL

For the compound `CCC(c1ccccc1)c1c(O)cc(CCc2ccccc2)oc1=O` (configuration not stated), the affinity in series [1] corresponds to a Ki of 0.5 µM.

As for `CCC(c1ccccc1)c1c(O)c2ccccc2oc1=O` (configuration not stated) [PHENPROCOUMON], the EC50 in [2] is 300 µM. For the same compound, the Ki (commonly a measure of affinity in units of concentration, obtained from inhibition or displacement) in series [1] was determined as 1 µM.

Regarding `CC(=O)CC(c1ccccc1)c1c(O)c2ccccc2oc1=O` (configuration not stated) [WARFARIN], the IC50 (commonly the concentration at which inhibition is half-maximal) in series [3] was roughly 30 µM.

For the compound `CCC(Cc1ccccc1)c1cc(O)c(C(CC)c2ccccc2)c(=O)o1` (configuration not stated), the clearance was 0.7 mL/min/kg in [4] and 0.8 mL/min/kg in series [15]. Besides, the bioavailability (in general, the share of a dose that reaches the circulation, judged against a reference dose that is usually intravenous) in series [5] amounted to 76%; in series [17], 45%. For the same compound, the inhibition (as a rule, the relative decrease from the control value, in per cent) in [6] worked out at 0%; in series [13], 53%; in [14], 0%; in series [16] it was 52%; in series [20], 72%. Further, the EC50 in [7] is 3 µM; in series [18] it was 3 µM; in series [21], 4 µM. In addition, the TCID50 in series [8] was 20 µM. This compound also gave a Ki in [9] of 0.038 µM. Besides, the Vd in [10] is 0.26 L/kg; in series [11], 0.1 L/kg. For the same compound, the half-life – broadly, how long it takes for the measured level to halve – was 6 h in series [12] and 4 h in series [19].
